Test results reported in patent US6599893B2, “Cephalosporin antibiotics and prodrugs thereof” (Essential Therapeutics, Inc., priority 2000, dated 2003).
In brackets after ≈: the same amount, converted by molar mass. Where two headings read alike, the source gives them in different places.

Assays:
[1] = system: Staphylococcus aureus 76 (MRSA, β-lactamase producing); test: Broth microdilution MIC, S. aureus 76; format: cell-based; settings: Staphylococcus aureus 76 (MRSA, β-lactamase producing); for MIC: read-out: MIC S. a. 76
Procedure, shortened: (§1)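 Broth microdilution per NCCLS M7-A3 (1993) guidelines. MIC taken as the lowest compound concentration preventing bacterial growth.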

[2] = Human serum binding by ultrafiltration; format: in vitro ADME
Description: Binding of several representative compounds of this invention in pooled human serum was determined using ultrafiltration. Compounds were incubated in serum for 10 minutes at 37° C. in a shaking water bath. Serum ultrafiltrate was accomplished by centrifugation (Amicon Centrifree) for 20 minutes at 25° C. Compound content in the ultrafiltrate was quantified by HPLC. An ultrafilrate obtained by following the same procedure with no added compound was used as a standard.

[3] = system: Staphylococcus aureus COL (MRSA, non-β-lactamase producing); test: Broth microdilution MIC, S. aureus COL; format: cell-based; settings: Staphylococcus aureus COL (MRSA, non-β-lactamase producing); for MIC: read-out: MIC S. a. COL
Procedure, shortened: as §1

[4] = Human serum binding estimated from serum effect on MIC (HSB*); format: in vitro ADME
From the text: An estimate of human serum binding (HSB*) was obtained for some compounds using the MIC values against S. aureus ATCC 29213 determined in growth medium (GM) and in a 1:1 mixture of growth medium and human serum (GM+HS):
HSB*=(MICGM+HS−MICGM)/MICGM 100%

[5] = system: Enterococcus faecalis ATCC 29212; test: Broth microdilution MIC, E. faecalis ATCC 29212; format: cell-based; settings: Enterococcus faecalis ATCC 29212; for MIC: ATCC29212, read-out: MIC E. f. 29212
Procedure, shortened: as §1

[6] = system: Enterococcus faecium ATCC 35667; test: Broth microdilution MIC, E. faecium ATCC 35667; format: cell-based; settings: Enterococcus faecium ATCC 35667; for MIC: ATCC35667, read-out: MIC E. f. 35667
Procedure, shortened: as §1

[7] = system: Staphylococcus aureus ATCC 29213 (MSSA); test: Broth microdilution MIC, S. aureus ATCC 29213; format: cell-based; settings: Staphylococcus aureus ATCC 29213 (MSSA); for MIC: read-out: MIC S. a. 29213
Procedure, shortened: as §1

S. aureus strain Smith = test: Experimental infection of mice, ED50; format: in vivo, Swiss-Webster mice; settings: 50% efficacious dose, S. aureus Smith, mice challenged intraperitoneally, compound subcutaneously at 0 and 2 h, total dose, 72 h survival
Description: Staphylococcus aureus strain Smith (ATCC 13709, penicillin-susceptible) or strain 76 (methicillin-resistant) was cultured overnight at 37° C. in brain-heart infusion broth (BHIB). The following morning, a portion of the culture was transferred to fresh BHIB and incubated for an additional 4-5 hours at 37° C. The cells were harvested by centrifugation, washed twice with PBS, and adjusted to the desired inoculum amount. The cell suspension was mixed with an equal volume of sterile 14% hog-gastric mucin (Comber K. R.; Osborne C. D.; Sutherland R.: Comparative effects of amoxicillin and ampicillin in the treatment of experimental mouse infections. Antimicrobial Agents and Chemotherapy 7(2):179-185, 1975). The inoculum was kept in an ice bath until used (preferably in less than one hour).
Male Swiss-Webster mice were challenged intraperitoneally with 0.5 mL of a bacterial suspension of S. aureus strain Smith (LD50). Test compounds were administered subcutaneously in 0.1 mL volumes immediately after inoculation and 2 hours later. […] The total dose associated with 50% survival (ED50) was determined using the probit method (Pasiello, A. P., J. M. Essigmann, and G. N. Wogan.: Rapid and accurate determination of median lethal dose (LD50) and its error with a small computer. J Toxicol. Environ. Health. 3:797-809, 1977).

[8] = system: Staphylococcus aureus Smith (MSSA); test: Broth microdilution MIC, S. aureus Smith; format: cell-based; settings: Staphylococcus aureus Smith (MSSA); for MIC: read-out: MIC S. a. Smith
Procedure, shortened: as §1

[9] = pooled human serum, ultrafiltration, 10 minutes at 37° C.
[10] = MIC against S. aureus ATCC 29213 in growth medium vs 1:1 growth medium and human serum

| SMILES | MIC S. a. 76 [1] [mg/L] | HSB, human serum binding [2] [%] | MIC S. a. COL [3] [mg/L] | HSB*, human serum binding calculated using serum effect on MIC [4] [%] | MIC E. f. 29212 [5] [mg/L] | MIC E. f. 35667 [6] [mg/L] | MIC S. a. 29213 [7] [mg/L] | ED50, mg/kg (95% C.I.) (S. aureus strain Smith) | MIC S. a. Smith [8] [mg/L] | HSB, human serum binding [2, 9] [%] | HSB*, human serum binding calculated using serum effect on MIC [4, 10] [%] | MIC [1] [mg/L] | MIC [3] [mg/L] | MIC [5] [mg/L] | MIC [6] [mg/L] | MIC [7] [mg/L] | MIC [8] [mg/L] |
| --- | --- | --- | --- | --- | --- | --- | --- | --- | --- | --- | --- | --- | --- | --- | --- | --- | --- |
| NC(=O)CSCc1cnccc1SC1=C(C(=O)O)N2C(=O)[C@@H](NC(=O)/C(=N\O)c3nc(N)sc3Cl)[C@H]2SC1 [Compound 22] | 4 (≈ 6.49 µM) | 94 | 4 (≈ 6.49 µM) | 88 | 0.5 (≈ 0.812 µM) | 1 (≈ 1.62 µM) | 0.5 (≈ 0.812 µM) | 1.15 (0.7-1.6) mg/kg | 0.25 (≈ 0.406 µM) | – | – | – | – | – | – | – | – |
| NCCSCc1cnccc1SC1=C(C(=O)O)N2C(=O)[C@@H](NC(=O)/C(=N\O)c3nc(N)sc3Cl)[C@H]2SC1 [RWJ 54428, reference compound] | 1 (≈ 1.66 µM) | – | 0.5 (≈ 0.83 µM) | – | 0.06 (≈ 0.0996 µM) | 0.25 (≈ 0.415 µM) | 0.25 (≈ 0.415 µM) | 1.0 (0.7-1.6) mg/kg | 0.125 (≈ 0.208 µM) | 84 | 67 | – | – | – | – | – | – |
| Nc1nnc(SC2=C(C(=O)O)N3C(=O)[C@@H](NC(=O)C(=NOCCF)c4nc(N)sc4Cl)C3SC2)s1 (stereo partly drawn) [Compound 42, (7R)-7-[2-(2-Amino-5-chlorothiazol-4-yl)-2-(2-fluoroethoxyimino)-acetylamino]-3-(5-amino-[1,3,4]thiadiazol-2-ylsulfanyl)-8-oxo-5-thia-1-aza-bicyclo[4.2.0]oct-2-ene-2-carboxylic acid] | – | – | – | – | – | – | – | – | – | 65 | 75 | 2 (≈ 3.44 µM) | 2 (≈ 3.44 µM) | 1 (≈ 1.72 µM) | 4 (≈ 6.88 µM) | 0.5 (≈ 0.86 µM) | 0.25 (≈ 0.43 µM) |
| Nc1nc(C(=NO)C(=O)N[C@@H]2C(=O)N3C(C(=O)O)=C(Sc4nnc[nH]4)CSC23)c(Cl)s1 (stereo partly drawn) [Compound 40, (7R)-7-[2-(2-Amino-5-chlorothiazol-4-yl)-2-hydroxyimino-acetylamino]-8-oxo-3-(4H-[1,2,4]triazol-3-ylsulfanyl)-5-thia-1-aza-bicyclo[4.2.0]oct-2-ene-2-carboxylic acid] | – | – | – | – | – | – | – | – | – | 92 | 88 | 8 (≈ 15.9 µM) | 8 (≈ 15.9 µM) | 1 (≈ 1.99 µM) | 4 (≈ 7.95 µM) | 0.25 (≈ 0.497 µM) | 0.5 (≈ 0.994 µM) |
| Nc1nc(C(=NO)C(=O)N[C@@H]2C(=O)N3C(C(=O)O)=C(Sc4nnc(N)s4)CSC23)ns1 (stereo partly drawn) [Compound 37, (7R)-7-[2-(5-Amino-[1,2,4]thiadiazol-3-yl)-2-hydroxyimino-acetylamino]-3-(5-amino-[1,3,4]thiadiazol-2-ylsulfanyl)-8-oxo-5-thia-1-aza-bicyclo[4.2.0]oct-2-ene-2-carboxylic acid] | – | – | – | – | – | – | – | – | – | 79 | 50 | 4 (≈ 7.98 µM) | 4 (≈ 7.98 µM) | 2 (≈ 3.99 µM) | 1 (≈ 1.99 µM) | 0.25 (≈ 0.498 µM) | 0.125 (≈ 0.249 µM) |
